# From ChEMBL document CHEMBL2086220, “Selective cytotoxicity and apoptosis induction in glioma cell lines by 5-oxygenated-6,7-methylenedioxycoumarins from Pterocaulon species” (Eur J Med Chem, 2012)
# Active and inactive are the calls of the source. The calls are words filed in the database; no cut-off is given here.
# Experiments:
# C6 [1] = assay: Cytotoxicity against rat C6 cells incubated for 48 hrs by MTT assay; type: functional, cell-based
# [2] = Cytotoxicity against human U138MG cells incubated for 48 hrs by MTT assay; type: functional, cell-based, U138-MG
# Hippocampus = assay: Toxicity in Wistar rat organotypic hippocampal cultures at 100 uM incubated for 48 hrs by propidium iodide incorporation assay; type: tissue-based
# C6 [3] = assay: Induction of apoptotic cell death in rat C6 cells at 25 uM incubated for 24 hrs by Annexin V/PI staining based flow cytometry; type: functional
# C6 [4] = assay: Induction of apoptotic cell death in rat C6 cells at 50 uM incubated for 24 hrs by Annexin V/PI staining based flow cytometry; type: functional
# C6 [5] = assay: Induction of early apoptotic cell death in rat C6 cells at 100 uM incubated for 24 hrs by Annexin V/PI staining based flow cytometry; type: functional
# [6] = Rattus norvegicus, C6, 48 h, read-out: IC50
# [7] = Homo sapiens, U138-MG, 48 h, read-out: IC50
SMILES,IC50 (C6 [1]; [6]) [µM],"IC50 [2, 7] [µM]",IC50 (C6 [1]; c6),IC50 ([2]; u138-mg),also measured
CC(C)=CCOc1c2c(cc3oc(=O)ccc13)OCO2,77.5,65.4,–,–,–
COc1c2c(cc3oc(=O)ccc13)OCO2,34.6,31.6,–,–,Activity (Hippocampus): Non-toxic; Activity (C6 [3]): inactive; Activity (C6 [4]): inactive; Activity (C6 [5]): Active
CC(C)(O)C(O)COc1c2c(cc3oc(=O)ccc13)OCO2 (stereo not given),76.4,75.6,–,–,–
O=c1ccc2ccccc2o1 [COUMARIN],–,–,Not Active,Not Active,–
O=c1ccc2cc(O)c(O)cc2o1 [ESCULETIN],–,–,Not Active,Not Active,–
O=c1ccc2cc(O[C@@H]3O[C@H](CO)[C@@H](O)[C@H](O)[C@H]3O)c(O)cc2o1 [ESCULIN],–,–,Not Active,Not Active,–
Cn1nnc2c(C(N)=O)ncn2c1=O [TEMOZOLOMIDE],34,26,–,–,–
O=c1ccc2ccc(O)cc2o1 [UMBELLIFERONE],–,–,Not Active,Not Active,–
